Test results reported in patent US20140243326A1, “Synergistic Insecticidal Mixtures” (priority 2003, published 2014).
“And” between values parts separate entries of the source, which are not always exact repeats. Equal values may be shown once.

Key:
[1] = test system: Phaedon cochleariae larvae; experiment: Phaedon cochleariae larvae test (cabbage leaf dip); format: in vivo, mustard beetle (Phaedon cochleariae); details: 4 ppm, single active ingredient
Description: (§1) The expected effect for a given combination of two active ingredients can be calculated (cf. Colby, S. R., “Calculating Synergistic and Antagonistic Responses of Herbicide Combinations”, Weeds, 15, pp. 20-22, 1967).
(§2) If • X=the kill rate, expressed in % of the untreated control, while using active ingredient A in an application amount of m ppm, • Y=the kill rate, expressed in % of the untreated control, while using active ingredient B in an application amount of n ppm, • E=the kill rate, expressed in % of die untreated control, while using active ingredient A and B in application amounts of m and n ppm, then
(§3) If the actual kill rate is higher than calculated rate, the combination's kill rate is superadditive, i.e., it has a synergistic effect. In this case, the actually observed kill rate must be higher than the value calculated using the above formula for the expected kill rate (E).
(§4) Solvent: 7 parts per weight dimethyl formamide Emulsifiers: 2 parts by weight alkylaryl polyglycol ether
To manufacture one of the appropriate active ingredient preparations, mix 1 part by weight of the active ingredient with the indicated amount of solvent and emulsifier and dilute the concentrate with emulsifier-containing water to the desired concentration.
Cabbage leaves (Brassica oleracea) are treated by being dipped into the active ingredient preparation at the desired concentration and infested with larvae of the mustard beetle (Phaedon cochleariae) while the leaves are still damp.
After the desired time, determine the % that have been killed off. For this purpose 100% means that all the beetle larvae on the leaves were killed; 0% means that no beetle larvae were killed. Calculate the determined kill values using Colby's formula.

[2] = test system: Myzus persicae; experiment: Myzus persicae test (cabbage leaf dip); format: in vivo, green peach aphid (Myzus persicae); details: single active ingredient
Description: as §1, §2, §3, §4
(§5) To prepare one of the appropriate active ingredient preparations, mix 1 part by weight of the active ingredient with the indicated amount of solvent and emulsifier and dilute the concentrate with emulsifier-containing water to the desired concentration.
Cabbage leaves (Brassica oleracea) that have been highly infested with the green peach aphid (Myzus persicae) are treated by being dipped into the active ingredient preparation at the desired concentration.
After the desired time, determine the % that have been killed off. For these purposes, 100% means that all the aphids on the leaves were killed; 0% means that no aphids were killed. Calculate the determined kill values using Colby's formula.

[3] = test system: Plutella xylostella, resistant strain; experiment: Plutella xylostella test, resistant strain (cabbage leaf dip); format: in vivo, diamondback moth (Plutella xylostella; details: 100 ppm, single active ingredient
Description: as §1, §2, §3
Solvent: 7 parts per weight dimethyl formamide Emulsifier: 2 parts by weight alkylaryl polyglycol ether
as §5
Cabbage leaves (Brassica oleracea) are treated by being dipped into the active ingredient preparation at the desired concentration and infested with diamondback moth grubs (Plutella xylostella, resistant strain) while the leaves are still damp.
After the desired time, determine the % that have been killed off. For these purposes 100% means that all the grubs on the leaves were killed; 0% means that no grubs were killed. Calculate the determined kill rate values using Colby's formula.

Structure (SMILES): CN/C(=N\[N+](=O)[O-])NCc1cnc(Cl)s1 [clothianidin]
- Kill rate in % after 6d [1]: 75%

Structure (SMILES): O=[N+]([O-])NC1=NCCN1Cc1ccc(Cl)nc1 [imidacloprid]
- Kill rate in % after 6d [1]: 45%

Structure (SMILES): N#C/N=C1\SCCN1Cc1ccc(Cl)nc1 [thiacloprid]
- Dead in % after 6d ([2]; 0.8 ppm): 30%
- Kill rate in % after 6d [1]: 0%
- Kill rate in % after 6d [3]: 45%

Structure (SMILES): CN1COCN(Cc2cnc(Cl)s2)/C1=N/[N+](=O)[O-] [thiamethoxam]
- Kill rate in % after 6d ([2]; 0.8 ppm): 85%
- Kill rate in % after 6d [1]: 25%
- Kill rate in % after 6d [3]: 75%

Structure (SMILES): CS/C(C)=N\OC(=O)N(C)SN(C)C(=O)O/N=C(\C)SC [thiodicarb]
- Dead in % after 6d ([2]; 20 ppm): 0%
- Kill rate in % after 6d ([2]; 20 ppm): 0%
- Kill rate in % after 6d [3]: 15% and 5%
